Assay results reported in ChEMBL document CHEMBL1144649, “2-cyanoaminopyrimidines as a class of antitumor agents that promote tubulin polymerization” (Bioorg Med Chem Lett, 2007).
The source made the active and inactive calls. The calls are words filed in the database; no cut-off is given here.

Key:
[1] = Antiproliferative activity against KB8.5 cells; format: functional, cell-based; details: Homo sapiens
[2] = tested on: KB; test: Ratio of IC50 for KB8.5 cells to IC50 for KB cells; format: functional, Homo sapiens
[3] = tested on: COLO 205; test: Cytotoxicity against COLO205 cells; format: functional, cell-based; details: Homo sapiens
[4] = Ratio of IC50 for KB V1 cells to IC50 for KB cells
[5] = Antiproliferative activity against KBV1cells; format: functional, cell-based; details: Homo sapiens, KB-V1
[6] = Solubility in water at pH 7.4; format: physicochemical
[7] = tested on: KB; test: Antiproliferative activity against KB cells; format: functional, cell-based; details: Homo sapiens
[8] = biological target: T1, Tubulin (Homo sapiens) (UniProt P68371+Q9H4B7+P0DPH7+P68366+Q13509+Q71U36+P04350+Q3ZCM7+P07437+P68363+Q9BQE3+Q6PEY2+Q13885+Q9BVA1+Q9BUF5); test: Stimulation of tubulin polymerization; format: protein-complex assay
[9] = biological target: T1, Tubulin (Homo sapiens); test: Stimulation of MAP-rich tubulin polymerization; format: protein-complex assay
[10] = Stability in nude mouse microsomes after 30 mins; format: ADME, Microsome; details: read-out: Stability

SMILES	IC50 [1] [nM]	Ratio IC50 [2]	IC50 [3] [nM]	IC50 [5] [nM]	also measured
CNCCCOc1cc(F)c(-c2c(Cl)nc3ncnn3c2N[C@@H](C)C(F)(F)F)c(F)c1.Cl	67	2.9	–	–	–
CN(C)CCCOc1cc(F)c(-c2c(Cl)nc(N(C)C#N)nc2NCC(F)(F)F)c(F)c1	–	–	52	–	–
CC[C@]1(O)C[C@H]2CN(CCc3c([nH]c4ccccc34)[C@@](C(=O)OC)(c3cc4c(cc3OC)N(C=O)[C@H]3[C@@](O)(C(=O)OC)[C@H](OC(C)=O)[C@]5(CC)C=CCN6CC[C@]43[C@@H]65)C2)C1 [VINCRISTINE]	58	26	–	2040	Ratio IC50 [4]: 925
CC(=O)O[C@H]1C(=O)[C@@]2(C)[C@H]([C@H](OC(=O)c3ccccc3)[C@]3(O)C[C@H](OC(=O)[C@H](O)[C@@H](NC(=O)c4ccccc4)c4ccccc4)C(C)=C1C3(C)C)[C@]1(OC(C)=O)CO[C@@H]1C[C@@H]2O [PACLITAXEL]	–	–	–	2010	–
C=CCN(C#N)c1nc(Cl)c(-c2c(F)cc(F)cc2F)c(NCC(F)(F)F)n1	–	–	477	–	–
C[C@H](Nc1nc(N(C)C#N)nc(Cl)c1-c1c(F)cc(OCCCN(C)C)cc1F)C(F)(F)F	59	2.5	36	82	Ratio IC50 [4]: 3.5; solubility [6]: > 100 µg/mL; IC50 [7]: 24 nM; Activity [8]: Active; Activity [9]: Active; remaining at 0.5 h [10]: 92%
CN(C)CCCCOc1cc(F)c(-c2c(Cl)nc(N(C)C#N)nc2NCC(F)(F)F)c(F)c1	–	–	229	–	–
CN(C)CCOc1cc(F)c(-c2c(Cl)nc(N(C)C#N)nc2NCC(F)(F)F)c(F)c1	–	–	532	–	–
CN(C#N)c1nc(Cl)c(-c2c(F)cc(F)cc2F)c(NCC(F)(F)F)n1	–	–	214	–	–
CCN(C#N)c1nc(Cl)c(-c2c(F)cc(F)cc2F)c(NCC(F)(F)F)n1	–	–	304	–	–
